Tested on: pERK (KRas-mediated, SOS1-dependent) in MKN1 or H358 cells
Assay: cells
Conditions: read-out: IC50 (pERK inhibition)
Description: Assay day 1, cells were dosed with the compounds of the invention with a 10 μm starting concentration and serially diluted 3× for a total of 9 concentrations. The cells were incubated for approximately 0.5-1 hour with the compounds solubilized in DMSO at 37° C. Cells were immediately fixed by adding 50 μL of 4% formaldehyde to all wells in a fume hood and the plates were incubated for 20 minutes at room temperature. The formaldehyde was discarded from the plates and 150 μL of ice-cold methanol was added to permeabilize the cells for 10 minutes at −20° C. The methanol was discarded from each of the plates and any liquid remaining in the plate by tapping the plate against paper towels. […] The plates were incubated overnight at 4° C. on a shaker.
On Assay day 2, the primary antibody solution was removed. […] The secondary antibody solution as removed and each plate was washed with PBST 3× times. Any liquid remaining was discarded and the plate was imaged using the Licor Odyssey machine according to the manufacturer's instruction, using a set focus length at 3 mm and both 800 nm and 700 nm filters. The GAPDH normalized scan values for each well were divided by the average of vehicle wells to get the % of pERK inhibition. The IC50 values were then calculated with the Graph pad Prism software.

For `Cc1c(C#N)cccc1[C@@H](C)Nc1nnc(C)c2cnc(N3CCOCC3)cc12` [Example 12-10, (R)-2-methyl-3-(1-((4-methyl-7-morpholinopyrido[3,4-d]pyridazin-1-yl)amino)ethyl)benzonitrile], which IC50 is on record?
The IC50 was 46 nM.

— patent US20250382290A1, “SALTS OF SOS1 INHIBITORS” (MIRATI THERAPEUTICS, INC., priority 2022, published 2025)
